According to article PMC5745756, “N,N-disubstituted azines attenuate LPS-mediated neuroinflammation in microglia and neuronal apoptosis via inhibiting MAPK signaling pathways” (BMC Neuroscience, 2017):
Like-named read-outs stand apart in the source and are kept apart here.

How the values were obtained:
Type in all cases: cell-based, murine
[1] = test system: NO production in LPS-activated BV-2 cells; assay: Nitrite (Griess) assay of NO production in LPS-activated BV-2 cells; conditions: Mus musculus, read-out: IC50, concentration that caused 50% inhibition of NO production in LPS-activated BV-2 cells
Procedure: (§1) […] or MTT assay was performed as described by our previous publication with slight modification. In order to measure MTT and NO production, BV-2 cells were plated into a 96-well plate at a density of 4 × 10^4 cells/well. […] Then, nitrite (a soluble oxidation product of NO) was detected in the culture media by using the Griess reaction. The supernatant (50 µL) was collected and mixed with an equal volume of Griess reagent (1% sulfanilamide in phosphoric acid and 0.1% N-1-napthylethylenediamine dihydrochloride). The absorbance was measured at 570 nm by using a microplate reader. Sodium nitrite was used to create a standard curve from which the NO2 concentration was calculated. The cell viability was evaluated by spectrophotometrically measuring the reduction of yellow 3-[4,5-dimethylthiazol-2-yl]-2,5-diphenyltetrazolium bromide (MTT) to purple formazan crystals. MTT was dissolved in DMEM, added to the culture plate containing cells at a final concentration of 0.5 mg/mL, and incubated for 1 h. The medium containing the MTT solution was carefully removed, and 200 µL DMSO was added to each well. After solubilizing the stained cells to produce a formazan-colored solution, the optical density (OD) was measured on a microplate reader at 570 nm, and the results were expressed as a percentage of the LPS-treated group. The same plate was used for the NO and MTT assays. The cell supernatant was used for the NO assay, and the plated cells were used for the MTT assay.
(§2) The NO production and cell viability of LPS-activated BV-2 cells were measured after treatment with azine derivatives using Griess reagent and MTT assay, respectively.

[2] = MTT cell viability of LPS-activated BV-2 cells; conditions: mouse, LPS-activated BV-2 microglial cells; 20 µM compound; percentage of the LPS-only treatment group; mean ± standard deviation, three experiments
Procedure: as §1, §2

BV-2 cells = assay: MTT cell viability of LPS-activated BV-2 cells
Procedure: as §1, §2

[3] = BV-2, 100 ng/mL LPS, 24 h, Griess reaction

| SMILES | IC50 [1, 3] | viability at 24 h, 20 µM [2] | Toxicity in BV-2 cells (discussion) (BV-2 cells) | IC50 ([1]; BV-2, 24 h) |
| --- | --- | --- | --- | --- |
| COc1ccc(/C=C/C=NN=C/C=C/c2ccc(OC)cc2)cc1 [Compound 1, 1,2-Bis((E)-3-(4-methoxyphenyl)allylidene)hydrazine] | 58.5 µM | 90.3 ± 9.37% | – | – |
| C/C(C=NN=C/C(C)=C/c1ccccc1)=C\c1ccccc1 [Compound 2, 1,2-Bis((E)-2-methyl-3-phenylallylidene)hydrazine] | 50.1 µM | 96.6 ± 1.75% | – | – |
| C(C=C(c1ccccc1)c1ccccc1)=NN=CC=C(c1ccccc1)c1ccccc1 [Compound 8, 1,2-Bis(3,3-diphenylallylidene)hydrazine] | 47.9 µM | 69.5 ± 3.25% | high toxicity | – |
| O=[N+]([O-])c1ccccc1/C=C/C=NN=C/C=C/c1ccccc1[N+](=O)[O-] [Compound 6, 1,2-Bis((E)-3-(2-nitrophenyl)allylidene)hydrazine] | – | 87.9 ± 19.5% | – | 47.4 µM |
| Clc1ccc(/C=C/C=NN=C/C=C/c2ccc(Cl)cc2)cc1 [Compound 7, 1,2-Bis((E)-3-(4-chlorophenyl)allylidene)hydrazine] | 39.9 µM | 77.2 ± 5.67% | high toxicity | – |

The next lines start with results.

| IC50 [1, 3] | SMILES | viability at 24 h, 20 µM [2] | Toxicity in BV-2 cells (discussion) (BV-2 cells) | IC50 ([1]; BV-2, 24 h) |
| --- | --- | --- | --- | --- |
| > 500 µM | C(=NN=Cc1cnc2ccccc2c1)c1cnc2ccccc2c1 [Compound 4, 1,2-Bis(quinolin-3-ylmethylene)hydrazine] | 91 ± 3.39% | – | – |
| 18.3 µM | [H]/N=C(/NC)NCCC[C@H](N)C(=O)O [L-NMMA, L-NG-monomethylarginine, reference compound] | 100 ± 3.41% | – | – |
| 26.3 µM | C(=NN=Cc1ccc(N(c2ccccc2)c2ccccc2)cc1)c1ccc(N(c2ccccc2)c2ccccc2)cc1 [Compound 9, 4,4′-Hydrazine-1,2-diylidenebis(methan-1-yl-1-ylidene)bis(N,N-diphenylaniline)] | 83.5 ± 7.78% | – | – |
